Measured values: US6335339B1, “Triazine antiviral compounds” (Scriptgen Pharmaceuticals, Inc., priority 1998, dated 2002)

What was measured:
HBV εRNA = assay: εRNA/oligonucleotide hybridization inhibition assay with rRNA competitor; assay type: binding, Hepatitis B virus; conditions: for Specificity: ratio RRE+rRNA IC50/εRNA+rRNA IC50, max = inactive in RRE assay
Procedure, shortened: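 Inhibition of hybridization between 25 nM [32P]-εRNA and 100 nM biotinylated complementary oligonucleotide (50 mM Tris-HCl pH 7.5, 200 mM KCl, 5 mM MgCl2, 60 min, 25 °C), hybrids captured by streptavidin filter and counted. Titrations 0.1-200 μM with 60-fold excess rRNA; specificity = RRE+rRNA IC50/εRNA+rRNA IC50.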

HIV derived RRE RNA = assay: heterologous hybridization inhibition assay with RRE RNA; assay type: binding; conditions: radiolabeled RRE RNA, rRNA competitor
[1] = radiolabeled εRNA, 60-fold excess rRNA competitor

`Oc1ccc(Cl)cc1C=NNc1nc(Nc2ccc3ccccc3c2)nc(N2CCOCC2)n1` [Compound 160] showed an IC50 (HBV εRNA; [1]) of 9.5 µM, a Specificity (HBV εRNA) of 44.2 and an IC50 (HIV derived RRE RNA) of 420 µM.

`COc1c(C=NNc2nc(NCc3ccccc3)nc(Nc3ccccc3)n2)cccc1[N+](=O)[O-]` [Compound 162] was tested, and the IC50 (HBV εRNA; [1]) was 11.7 µM, the Specificity (HBV εRNA) was “max” and the “RRE + rRNA IC50 (μM)” value (HIV derived RRE RNA) was “inactive”.

In the case of `Brc1cccc(C=NNc2nc(Nc3ccccc3)nc(N3CCOCC3)n2)c1` [Compound 163], the IC50 (HBV εRNA; [1]) is reported as 99 µM, the Specificity (HBV εRNA) is reported as “max” and the “RRE + rRNA IC50 (μM)” value (HIV derived RRE RNA) is reported as “inactive”.

With `COc1ccc(Nc2nc(NN=Cc3ccc(O)cc3O)nc(N3CCOCC3)n2)cc1` [Compound 164] the IC50 (HBV εRNA; [1]) was 48 µM, the Specificity (HBV εRNA) was “max” and the “RRE + rRNA IC50 (μM)” value (HIV derived RRE RNA) was “inactive”.

With `COc1ccc(C=NNc2nc(NCc3ccccc3)nc(Nc3ccccc3)n2)cc1` [Compound 165] the IC50 (HBV εRNA; [1]) was 18.8 µM, the Specificity (HBV εRNA) was “max” and the “RRE + rRNA IC50 (μM)” value (HIV derived RRE RNA) was “inactive”.

With `Ic1cccc(C=NNc2nc(Nc3ccc4ccccc4c3)nc(N3CCOCC3)n2)c1` [Compound 166] the IC50 (HBV εRNA; [1]) was 36.3 µM, the Specificity (HBV εRNA) was “max” and the “RRE + rRNA IC50 (μM)” value (HIV derived RRE RNA) was “inactive”.

`Oc1ccc2ccccc2c1C=NNc1nc(Nc2cccc3ccccc23)nc(N2CCOCC2)n1` [Compound 167] was tested, and the IC50 (HBV εRNA; [1]) was 50.9 µM, the Specificity (HBV εRNA) was “max” and the “RRE + rRNA IC50 (μM)” value (HIV derived RRE RNA) was “inactive”.

In the case of `COc1c(C=NNc2nc(Nc3ccccc3)nc(Nc3ccccc3)n2)ccc(Br)c1O` [Compound 168], the IC50 (HBV εRNA; [1]) is reported as 19.7 µM, the Specificity (HBV εRNA) is reported as “max” and the “RRE + rRNA IC50 (μM)” value (HIV derived RRE RNA) is reported as “inactive”.

For `Oc1ccccc1C=NNc1nc(Nc2ccccc2)nc(N2CCCCC2)n1` [Compound 169], the IC50 (HBV εRNA; [1]) was 15.4 µM, the Specificity (HBV εRNA) was “max” and the “RRE + rRNA IC50 (μM)” value (HIV derived RRE RNA) was “inactive”.

`COc1cccc(C=NNc2nc(Nc3ccccc3)nc(N3CCCC3)n2)c1O` [Compound 170] showed an IC50 (HBV εRNA; [1]) of 6.2 µM, a Specificity (HBV εRNA) of 119.3 and an IC50 (HIV derived RRE RNA) of 740 µM.

In the case of `CCN(CC)c1nc(NN=Cc2c(O)ccc3ccccc23)nc(Nc2ccccc2)n1` [Compound 171], the IC50 (HBV εRNA; [1]) is reported as 9.4 µM, the Specificity (HBV εRNA) is reported as “max” and the “RRE + rRNA IC50 (μM)” value (HIV derived RRE RNA) is reported as “inactive”.

`Cc1cccc(C(=O)Oc2ccc(C=NNc3nc(N4CCCCC4)nc(N4CCCCC4)n3)cc2)c1` [Compound 181] was tested, and the IC50 (HBV εRNA; [1]) was 60 µM, the Specificity (HBV εRNA) was “max” and the “RRE + rRNA IC50 (μM)” value (HIV derived RRE RNA) was “inactive”.

For `CC(=NNc1nc(NCc2ccccc2)nc(Nc2ccccc2)n1)c1ccc([N+](=O)[O-])cc1` [Compound 182], the IC50 (HBV εRNA; [1]) was 70.4 µM, the Specificity (HBV εRNA) was “max” and the “RRE + rRNA IC50 (μM)” value (HIV derived RRE RNA) was “inactive”.

With `CC(=NNc1nc(Nc2ccccc2)nc(N2CCCC2)n1)c1ccc([N+](=O)[O-])cc1` [Compound 183] the IC50 (HBV εRNA; [1]) was 47.8 µM, the Specificity (HBV εRNA) was “max” and the “RRE + rRNA IC50 (μM)” value (HIV derived RRE RNA) was “inactive”.

With `Cc1ccc(Nc2nc(NCc3ccccc3)nc(NN=Cc3ccc(F)cc3F)n2)cc1C` [Compound 191] the IC50 (HBV εRNA; [1]) was 87 µM, the Specificity (HBV εRNA) was “max” and the “RRE + rRNA IC50 (μM)” value (HIV derived RRE RNA) was “inactive”.

`CN(C)c1nc(NCc2ccccc2)nc(NCc2cccs2)n1` [Compound 192] was tested, and the IC50 (HBV εRNA; [1]) was 235 µM, the Specificity (HBV εRNA) was “max” and the “RRE + rRNA IC50 (μM)” value (HIV derived RRE RNA) was “inactive”.

For `COc1c(C=NNc2nc(N3CCCC3)nc(N3CCOCC3)n2)cccc1[N+](=O)[O-]` [Compound 193], the IC50 (HBV εRNA; [1]) was 28 µM, the Specificity (HBV εRNA) was “max” and the “RRE + rRNA IC50 (μM)” value (HIV derived RRE RNA) was “inactive”.

With `Cc1ccc(Nc2nc(NCc3ccccc3)nc(Nc3ccc([N+](=O)[O-])cc3)n2)cc1C` [Compound 194] the IC50 (HBV εRNA; [1]) was 34 µM, the Specificity (HBV εRNA) was “max” and the “RRE + rRNA IC50 (μM)” value (HIV derived RRE RNA) was “inactive”.

`COc1ccccc1C=NNc1nc(NCc2ccccc2)nc(Nc2ccccc2)n1` [Compound 195] was tested, and the IC50 (HBV εRNA; [1]) was 28.2 µM, the Specificity (HBV εRNA) was “max” and the “RRE + rRNA IC50 (μM)” value (HIV derived RRE RNA) was “inactive”.

`Cc1ccc(Nc2nc(NN=Cc3ccc(Cl)cc3)nc(N3CCOCC3)n2)cc1Cl` [Compound 196] was tested, and the IC50 (HBV εRNA; [1]) was 32.7 µM, the Specificity (HBV εRNA) was “max” and the “RRE + rRNA IC50 (μM)” value (HIV derived RRE RNA) was “inactive”.

`COc1ccc(Nc2nc(NN=Cc3cc(Br)cc(Br)c3O)nc(N3CCOCC3)n2)cc1` [Compound 200] was tested, and the IC50 (HBV εRNA; [1]) was 12.1 µM, the Specificity (HBV εRNA) was “max” and the “RRE + rRNA IC50 (μM)” value (HIV derived RRE RNA) was “inactive”.

In the case of `Fc1cccc(C=NNc2nc(Nc3ccccc3)nc(N3CCCC3)n2)c1` [Compound 201], the IC50 (HBV εRNA; [1]) is reported as 53 µM, the Specificity (HBV εRNA) is reported as “max” and the “RRE + rRNA IC50 (μM)” value (HIV derived RRE RNA) is reported as “inactive”.

In the case of `CCN(CC)c1nc(Nc2cccc(Br)c2)nc(Nc2cc(C)ccc2C)n1` [Compound 202], the IC50 (HBV εRNA; [1]) is reported as 68 µM, the Specificity (HBV εRNA) is reported as “max” and the “RRE + rRNA IC50 (μM)” value (HIV derived RRE RNA) is reported as “inactive”.

With `O=C(CSc1nc(SCC(=O)Nc2ccccc2C(F)(F)F)nc(SCC(=O)Nc2ccccc2C(F)(F)F)n1)Nc1ccccc1C(F)(F)F` [Compound 212] the IC50 (HBV εRNA; [1]) was 23.1 µM, the Specificity (HBV εRNA) was “max” and the “RRE + rRNA IC50 (μM)” value (HIV derived RRE RNA) was “inactive”.

`C(=Cc1ccccc1)C=NNc1nc(Nc2ccccc2)nc(N2CCCC2)n1` [Compound 213] showed an IC50 (HBV εRNA; [1]) of 15.6 µM, a Specificity (HBV εRNA) of 33.3 and an IC50 (HIV derived RRE RNA) of 519 µM.

For `CCN(CC)c1nc(NN=Cc2ccc(Cl)c([N+](=O)[O-])c2)nc(Nc2cc(C)ccc2C)n1` [Compound 214], the IC50 (HBV εRNA; [1]) was 42.6 µM, the Specificity (HBV εRNA) was “max” and the “RRE + rRNA IC50 (μM)” value (HIV derived RRE RNA) was “inactive”.

Work on `Clc1ccc(C=NNc2nc(Nc3ccccc3)nc(N3CCCC3)n2)cc1` [Compound 218] yielded an IC50 (HBV εRNA; [1]) of 4.8 µM, a Specificity (HBV εRNA) of 12.0 and an IC50 (HIV derived RRE RNA) of 57.8 µM.

With `Cc1ccc(Nc2nc(NCc3ccccc3)nc(NN=Cc3cc(Br)cc(Br)c3O)n2)cc1C` [Compound 219] the “HBV + rRNA IC50 (μM)” value (HBV εRNA; [1]) was “inactive” and the “RRE + rRNA IC50 (μM)” value (HIV derived RRE RNA) was “inactive”.

In the case of `O=C(NNc1nc(Nc2ccccc2)nc(Nc2cccc(C(F)(F)F)c2)n1)c1cccc(Br)c1` [Compound 220], the IC50 (HBV εRNA; [1]) is reported as 27.6 µM, the Specificity (HBV εRNA) is reported as 33.3 and the IC50 (HIV derived RRE RNA) is reported as 918 µM.

`CN(C)c1nc(NCc2ccccc2)nc(NN=Cc2ccc(Cl)cc2Cl)n1` [Compound 224] was tested, and the IC50 (HBV εRNA; [1]) was 60.1 µM, the Specificity (HBV εRNA) was “max” and the “RRE + rRNA IC50 (μM)” value (HIV derived RRE RNA) was “inactive”.

With `COc1ccc(Nc2nc(NCc3cccc([N+](=O)[O-])c3)nc(NCc3cc(F)ccc3F)n2)cc1OC` [Compound 225] the IC50 (HBV εRNA; [1]) was 193 µM, the Specificity (HBV εRNA) was “max” and the “RRE + rRNA IC50 (μM)” value (HIV derived RRE RNA) was “inactive”.

`Cc1ccc(Nc2nc(NCc3ccccc3)nc(NN=Cc3cc(Cl)ccc3O)n2)cc1C` [Compound 226] was tested, and the IC50 (HBV εRNA; [1]) was 84.4 µM, the Specificity (HBV εRNA) was 5.0 and the IC50 (HIV derived RRE RNA) was 422 µM.

In the case of `CC(=NNc1nc(Nc2ccccc2)nc(N2CCCC2)n1)c1ccc(F)cc1` [Compound 227], the IC50 (HBV εRNA; [1]) is reported as 12.8 µM, the Specificity (HBV εRNA) is reported as “max” and the “RRE + rRNA IC50 (μM)” value (HIV derived RRE RNA) is reported as “inactive”.

In the case of `Cc1ccc(Nc2nc(NCc3ccccc3)nc(NN=Cc3ccccc3F)n2)cc1C` [Compound 228], the IC50 (HBV εRNA; [1]) is reported as 79.3 µM, the Specificity (HBV εRNA) is reported as “max” and the “RRE + rRNA IC50 (μM)” value (HIV derived RRE RNA) is reported as “inactive”.

With `Cc1ccc(Nc2nc(NN=Cc3cccc([N+](=O)[O-])c3)nc(Nc3ccccc3)n2)c(C)c1` [Compound 229] the IC50 (HBV εRNA; [1]) was 4.4 µM, the Specificity (HBV εRNA) was “max” and the “RRE + rRNA IC50 (μM)” value (HIV derived RRE RNA) was “inactive”.

With `Brc1ccc(Nc2nc(NCc3ccccc3)nc(Nc3ccc(Br)cc3)n2)cc1` [Compound 230] the IC50 (HBV εRNA; [1]) was 20.9 µM, the Specificity (HBV εRNA) was “max” and the “RRE + rRNA IC50 (μM)” value (HIV derived RRE RNA) was “inactive”.

For `O=[N+]([O-])c1ccc(Nc2nc(NCc3ccccc3)nc(N3CCOCC3)n2)cc1` [Compound 231], the IC50 (HBV εRNA; [1]) was 195 µM, the Specificity (HBV εRNA) was “max” and the “RRE + rRNA IC50 (μM)” value (HIV derived RRE RNA) was “inactive”.

With `Oc1ccc(Br)cc1C=NNc1nc(Nc2cccc(Br)c2)nc(N2CCOCC2)n1` [Compound 232] the IC50 (HBV εRNA; [1]) was 45.5 µM, the Specificity (HBV εRNA) was “max” and the “RRE + rRNA IC50 (μM)” value (HIV derived RRE RNA) was “inactive”.
